Assay: xn = mol fraction of the nth substance listed

O=C(O)C(Cl)(Cl)Cl + Oc1ccccc1
323.15 K, 101 kPa
Details | viscosity [mPa·s]
x2 = 0.1005 | 5.083
x2 = 0.1834 | 5.115
x2 = 0.245 | 5.126
x2 = 0.3305 | 5.085
x2 = 0.4032 | 5.012
x2 = 0.5025 | 4.779
x2 = 0.5925 | 4.683
x2 = 0.6928 | 4.342
x2 = 0.76 | 4.127
x2 = 0.8544 | 3.811
x2 = 0.9117 | 3.569

CCCCN + C=C(C)C(=O)OC
303.15 K, 101 kPa
Details | viscosity [mPa·s]
x2 = 0.1016 | 0.4525
x2 = 0.1939 | 0.4608
x2 = 0.3316 | 0.4724
x2 = 0.4989 | 0.4852
x2 = 0.5966 | 0.4921
x2 = 0.8001 | 0.5045
x2 = 0.9006 | 0.5097

CCCCN + CC(C)CO
298.15 K, 101.32 kPa
Details | viscosity [mPa·s]
x2 = 0.1005 | 0.5513
x2 = 0.2 | 0.6546
x2 = 0.2984 | 0.7783
x2 = 0.3994 | 0.9361
x2 = 0.4997 | 1.135
x2 = 0.5998 | 1.373
x2 = 0.7007 | 1.674
x2 = 0.8122 | 2.126
x2 = 0.8939 | 2.593

CC[N+](=O)[O-] + CCC(C)O
viscosity [mPa·s], 101.33 kPa
Details | 293.15 K | 303.15 K | 313.15 K
x2 = 0.05 | 0.679 | 0.605 | 0.543
x2 = 0.1 | 0.68 | 0.601 | 0.538
x2 = 0.15 | 0.684 | 0.604 | 0.536
x2 = 0.2001 | 0.704 | 0.616 | 0.542
x2 = 0.25 | 0.727 | 0.632 | 0.555
x2 = 0.3002 | 0.759 | 0.652 | 0.569
x2 = 0.35 | 0.793 | 0.676 | 0.586
x2 = 0.4 | 0.845 | 0.716 | 0.61
x2 = 0.45 | 0.904 | 0.75 | 0.64
x2 = 0.5 | 0.971 | 0.8 | 0.675
x2 = 0.55 | 1.034 | 0.847 | 0.707
x2 = 0.5999 | 1.123 | 0.909 | 0.75
x2 = 0.6499 | 1.236 | 0.98 | 0.801
x2 = 0.7 | 1.378 | 1.07 | 0.862
x2 = 0.7497 | 1.516 | 1.169 | 0.935
x2 = 0.8 | 1.723 | 1.319 | 1.026
x2 = 0.8499 | 1.983 | 1.484 | 1.144
x2 = 0.8998 | 2.353 | 1.724 | 1.304
x2 = 0.9499 | 2.873 | 2.05 | 1.511

CC[N+](=O)[O-] + c1ccccc1
293.15 K, 101.33 kPa
Details | viscosity [mPa·s]
x1 = 0.0901 | 0.628
x1 = 0.1956 | 0.611
x1 = 0.2856 | 0.602
x1 = 0.3897 | 0.595
x1 = 0.4893 | 0.594
x1 = 0.5827 | 0.597
x1 = 0.6952 | 0.608
x1 = 0.7869 | 0.622
x1 = 0.879 | 0.644

O=[N+]([O-])c1ccc(O)cc1 + CCN(CC)CC
298.16 K, 101 kPa
Details | viscosity [mPa·s]
x1 = 0.5818 | 294.3
x1 = 0.5939 | 366.2
x1 = 0.6179 | 606.8
x1 = 0.6393 | 908.7
x1 = 0.6718 | 2449
x1 = 0.6969 | 3733
x1 = 0.7221 | 6669
x1 = 0.739 | 7410
x1 = 0.7731 | 8242
x1 = 0.7883 | 7522
x1 = 0.8008 | 6867
x1 = 0.8106 | 6269

— the CheMixHub viscosity set
